Measured values taken from US20080194546A1, “Pyrido-, Pyrazo- and Pyrimido-Pyrimidine Derivatives as mTOR Inhibitors” (KuDOS Pharmaceuticals Limited, priority 2005, published 2008).
Like-named read-outs stand apart in the source and are kept apart here.

Columns and labels:
mTOR = molecular target: T1, mTOR (Homo sapiens, UniProt P42345); assay: Biological Assay: mTOR enzyme activity, mTOR immunoprecipitated from HeLa cell cytoplasmic extract, recombinant PHAS-1 as substrate; assay type: biochemical
T1 construct: mTOR protein was isolated from HeLa cell cytoplasmic extract by immunoprecipitation; endogenous in cells; host or cells: HeLa cell cytoplasmic extract (immunoprecipitate)
Source text: For mTOR enzyme activity assays, mTOR protein was isolated from HeLa cell cytoplasmic extract by immunoprecipitation, and activity determined essentially as described previously using recombinant PHAS-1 as a substrate (ref. 21).

T47D cells = assay: Cell Proliferation Assay (GI50), sulforhodamine B (SRB) assay; assay type: cell-based; settings: Homo sapiens, 120 hours, SRB
Experimental: Cell growth was assessed using the sulforhodamine B (SRB) assay (A). T47D (ECACC, 85102201) cells were routinely passaged in RPMI (Invitrogen, 42401018) plus 10% foetal calf serum (FCS), 1% L-glutamine (Gibco BRL, 25030) to a confluence not greater than 80%. To undertake the assay, T47D cells were seeded at 2.5×10^3 cells/well in […] RPMI plus 10% foetal calf serum, 1% L-glutamine in 96 well plates (Costar, 3904) and incubated at 37° C. (+5% CO2) in a humidified incubator. Once the cells had fully adhered (typically following 4-5 hours incubation) the plate was removed from the incubator and 10 μL of the diluent added to the control wells (A1-12 and B1-12). Compound was prepared in a six point semi-log dilution at 10× the final concentration required e.g. for a 6 point range of 30 μM to 100 nM in semi-log steps dilution started at 300 μM in stock plate. Dosing was completed by addition of 10 μL of compound at highest concentration to C1-12 through to the lowest concentration in H1-12. The plates were then incubated for 120 hours prior to SRB analysis.
Upon completion of incubation, media was removed and the cells fixed with […] of ice cold 10% (w/v) trichloroacetic acid. The plates were incubated at 4° C. for 20 minutes and then washed four times with water. Each well of cells was then stained with 100 μl of 0.4% (w/v) SRB (Sulforhodamine B, Sigma, Poole, Dorset, UK, Catalogue number S-9012) in 1% acetic acid for 20 minutes before washing four times with 1% acetic acid. Plates were then dried for 2 hours at room temperature. The dye from the stained cells was solubilized by the addition of 100 μl of 10 mM Tris Base into each well. Plates were gently shaken and left at room temperature for 30 minutes before measuring the optical density at 564 nm on a Microquant microtiter plate reader. The concentration of inhibitor eliciting a 50% reduction in growth (GI50) was determined by analysis of staining intensity of the treated cells as a percentage of the vehicle control wells using Excelfit software.
(A) Skehan, P., Storung, R., Scudiero, R., Monks, A., McMahon, J., Vistica, D., Warren, J. T., Bokesch, H., Kenny, S. and Boyd, M. R. (1990) New […] cytotoxicity assay for anticancer-drug screening. J. Natl. Cancer Inst. 82, 1107-1112.

[1] = molecular target: recombinant mTOR (FLAG-tagged, amino acid residues 1362 to 2549) (Homo sapiens, UniProt P42345); assay: Alternative Enzyme Assay: AlphaScreen, inhibition of phosphorylation by recombinant mTOR; assay type: biochemical
[2] = test system: phosphorylation of Serine 473 in Akt in MDA-MB-468 cells; assay: In Vitro phospho-Ser473 Akt Assay (Acumen Explorer); assay type: cell-based; settings: Homo sapiens, MDA-MB-468 cells
[3] = Biological Assay, upper bounds, read-out: IC50 values against mTOR
[4] = Alternative Enzyme Assay, read-out: IC50 values against mTOR
[5] = mTOR from HeLa extract, PHAS-1 substrate, read-out: IC50, tested in the Biological Assay
[6] = compounds of Formula I(B), read-out: IC50 values against mTOR (phospho-Ser473 Akt assay)
[7] = Alternative Enzyme Assay, upper bounds, read-out: IC50 values against mTOR
[8] = 2 hours, read-out: IC50, phospho-Ser473 Akt assay (cellular IC50, measured by pAkt)

Row | SMILES | IC50 (mTOR; [3]) [nM] | GI50 (T47D cells; upper bounds) [nM] | IC50 [1, 4] [nM] | other results
1 | COc1ccc(-c2ccc3c(N4CCOCC4)nc(N4C[C@@H](C)O[C@@H](C)C4)nc3n2)cc1CNCC1CC1 [Example 8g] | < 100 | < 300 | – | –
2 | COc1ccc(-c2ccc3c(N4CCOCC4)nc(N4C[C@@H](C)O[C@@H](C)C4)nc3n2)cc1CNCC1CCCO1 (stereo partly shown) [Example 8aj] | < 100 | < 300 | – | –
3 | COc1ccc(-c2ccc3c(N4CCOCC4)nc(N4C[C@@H](C)O[C@@H](C)C4)nc3n2)cc1CNCC(O)c1cccc(O)c1 (stereo partly shown) [Example 8bb] | < 100 | < 300 | – | –
4 | COc1ccc(-c2ccc3c(N4CCOCC4)nc(N4C[C@@H](C)O[C@@H](C)C4)nc3n2)cc1CNCCC1CCCN1C (stereo partly shown) [Example 8ai] | < 100 | < 300 | – | –
5 | COC[C@H](Cc1ccccc1)NCc1cc(-c2ccc3c(N4CCOCC4)nc(N4C[C@@H](C)O[C@@H](C)C4)nc3n2)ccc1OC [Example 8be] | < 100 | < 300 | – | –
6 | COc1ccc(-c2ccc3c(N4CCOCC4)nc(N4C[C@@H](C)O[C@@H](C)C4)nc3n2)cc1CNc1cc[nH]n1 [Example 8al] | < 100 | < 300 | – | –
7 | COc1ccc(-c2ccc3c(N4CCOCC4)nc(N4C[C@@H](C)O[C@@H](C)C4)nc3n2)cc1CNCCC(C)(C)C [Example 8q] | < 1000 | – | – | GI50 (T47D cells): < 1000 nM
8 | COc1ccc(-c2ccc3c(N4CCOCC4)nc(N4C[C@@H](C)O[C@@H](C)C4)nc3n2)cc1CNCCSCCO [Example 8ad] | < 100 | < 300 | – | –
9 | COc1ccc(-c2ccc3c(N4CCOCC4)nc(N4C[C@@H](C)O[C@@H](C)C4)nc3n2)cc1CNC1CCCC1 [Example 8k] | < 100 | < 300 | – | –
10 | COc1ccc(-c2ccc3c(N4CCOCC4)nc(N4C[C@@H](C)O[C@@H](C)C4)nc3n2)cc1CNC(Cc1ccc([N+](=O)[O-])cc1)C(=O)O (stereo partly shown) [Example 8y] | < 1000 | – | – | GI50 (T47D cells): < 1000 nM
11 | COc1ccc(-c2ccc3c(N4CCOCC4)nc(N4C[C@@H](C)O[C@@H](C)C4)nc3n2)cc1CNCC1CCCCCC1O (stereo partly shown) [Example 8ab] | < 100 | < 300 | – | –
12 | CCCCCOc1ccc(NCc2cc(-c3ccc4c(N5CCOCC5)nc(N5C[C@@H](C)O[C@@H](C)C5)nc4n3)ccc2OC)cc1 [Example 8bf] | < 1000 | < 300 | – | –
13 | CNCc1cc(-c2ccc3c(N4CCOCC4)nc(N4C[C@@H](C)O[C@@H](C)C4)nc3n2)ccc1OC [Example 8f] | < 100 | < 300 | – | –
14 | COc1ccc(-c2ccc3c(N4CCOCC4)nc(N4C[C@@H](C)O[C@@H](C)C4)nc3n2)cc1CN[C@H](C)c1ccc([N+](=O)[O-])cc1 [Example 8au] | < 1000 | < 300 | – | –
15 | CCOCCCNCc1cc(-c2ccc3c(N4CCOCC4)nc(N4C[C@@H](C)O[C@@H](C)C4)nc3n2)ccc1OC [Example 8s] | < 1000 | – | – | GI50 (T47D cells): < 1000 nM
16 | COc1ccc(-c2ccc3c(N4CCOCC4)nc(N4C[C@@H](C)O[C@@H](C)C4)nc3n2)cc1CNCc1ccc([35Cl])cc1[35Cl] [Example 8aw] | < 100 | < 300 | – | –
17 | COc1ccc(-c2ccc3c(N4CCOCC4)nc(N4C[C@@H](C)O[C@@H](C)C4)nc3n2)cc1CNCc1ccccc1[35Cl] [Example 8ax] | < 100 | < 300 | – | –
18 | COc1ccc(-c2ccc3c(N4CCOCC4)nc(N4C[C@@H](C)O[C@@H](C)C4)nc3n2)cc1CNCc1cccc(CN)c1 [Example 8ap] | < 100 | < 300 | – | –

Row | SMILES | IC50 (mTOR; [3]) [nM] | GI50 (T47D cells; upper bounds) [nM] | IC50 [1, 4] [nM] | other results
19 | COc1ccc(-c2ccc3c(N4CCOCC4)nc(N4C[C@@H](C)O[C@@H](C)C4)nc3n2)cc1CNCCO [Example 8d] | < 100 | < 300 | – | –
20 | C#CC1(NCc2cc(-c3ccc4c(N5CCOCC5)nc(N5C[C@@H](C)O[C@@H](C)C5)nc4n3)ccc2OC)CCCCC1 [Example 8x] | < 1000 | – | – | GI50 (T47D cells): < 1000 nM
21 | COc1ccc(-c2ccc3c(N4CCOCC4)nc(N4C[C@@H](C)O[C@@H](C)C4)nc3n2)cc1CNC1CCC1 [Example 8a] | < 100 | < 300 | – | –
22 | COc1ccc(-c2ccc3c(N4CCOCC4)nc(N4C[C@@H](C)O[C@@H](C)C4)nc3n2)cc1CNC1CC1 [Example 8b] | < 100 | < 300 | – | –
23 | CCCCNCc1cc(-c2ccc3c(N4CCOCC4)nc(N4C[C@@H](C)O[C@@H](C)C4)nc3n2)ccc1OC [Example 8l] | < 100 | < 300 | – | –
24 | COc1ccc(-c2ccc3c(N4CCOCC4)nc(N4C[C@@H](C)O[C@@H](C)C4)nc3n2)cc1CNC1CCCCC1 [Example 8o] | < 100 | – | – | GI50 (T47D cells): < 1000 nM
25 | COc1ccc(-c2ccc3c(N4CCOC[C@@H]4C)nc(N4C[C@@H](C)O[C@@H](C)C4)nc3n2)cc1CO [Example 11b] | – | – | < 100 | IC50 (mTOR; [5]): 1.85 nM; IC50 [2, 6]: < 0.1 µM
26 | C[C@H]1COCCN1c1nc(N2CCOC[C@@H]2C)c2ccc(-c3cccc(Cl)n3)nc2n1 [Example 11v] | – | – | < 300 | IC50 ([1]; AlphaScreen, ATP 20 μM, read-out: IC50, tested in Alternative Enzyme Assay): 180 nM; IC50 ([2]; compounds of Formula I(B), upper bounds, read-out: IC50 values against mTOR (phospho-Ser473 Akt assay)): < 11 µM
27 | COc1ccc(-c2ccc3c(N4CCOCC4)nc(-c4cccc(C=O)c4)nc3n2)cc1CO [Example 9g] | – | – | < 300 | IC50 [1, 7]: < 10000 nM; IC50 [2, 8]: < 2.5 µM
28 | CCC1CCCCN1c1nc(N2CCOC[C@@H]2C)c2ccc(-c3ccc(OC)c(CO)c3)nc2n1 (stereo partly shown) [Example 11c] | – | – | < 300 | IC50 (mTOR; [5]): 1.84 nM; IC50 [2, 6]: < 0.1 µM
29 | CC(C)Oc1ccc(-c2ccc3c(N4CCOCC4)nc(N4C[C@@H](C)O[C@@H](C)C4)nc3n2)cc1 [Example 1bd] | – | – | < 300 | IC50 [1, 7]: < 10000 nM; IC50 [2, 8]: < 25 µM
30 | COc1ccc(-c2ccc3c(N4CCOCC4)nc(-c4cccc(C#N)c4)nc3n2)cc1CO [Example 9j] | – | – | < 300 | IC50 [1, 7]: < 10000 nM; IC50 [2, 8]: < 25 µM
31 | COCc1cccc(-c2nc(N3CCOCC3)c3ccc(-c4ccc(OC)c(CO)c4)nc3n2)c1 [Example 9h] | – | – | < 300 | IC50 [2, 8]: < 2.5 µM
32 | C[C@@H]1CN(c2nc(N3CCOCC3)c3ccc(-c4cccc(/C=N/O)c4)nc3n2)C[C@H](C)O1 [Example 1bg] | – | – | < 300 | IC50 [2, 8]: < 2.5 µM
33 | COc1ccc(-c2ccc3c(N4CCOCC4)nc(-c4cc(N)cc(C(=O)O)c4)nc3n2)cc1CO [Example 9a] | – | – | < 300 | IC50 [1, 7]: < 10000 nM; IC50 [2, 8]: < 25 µM
34 | COc1ccc(-c2ccc3c(N4CCOCC4)ncnc3n2)cc1CO [Example 1bj] | – | – | < 300 | IC50 [2, 8]: < 25 µM
35 | C/C(=N/O)c1cccc(-c2ccc3c(N4CCOCC4)nc(N4C[C@@H](C)O[C@@H](C)C4)nc3n2)c1 [Example 1bh] | – | – | < 300 | IC50 [2, 8]: < 25 µM
36 | CCOc1ccc(-c2ccc3c(N4CCOCC4)nc(N4C[C@@H](C)O[C@@H](C)C4)nc3n2)cc1 [Example 1br] | – | – | – | IC50 [1, 7]: < 1000 nM; IC50 [2, 8]: < 2.5 µM
